# According to patent US7772271B2 (priority 2004, dated 2010):
row,melting point,Compound
1,166 to 187 °C,CC(C)OC(=O)Nc1ccc(-c2c(C#N)c3ccc(OCS(C)(=O)=O)cc3n2C2CC2)cc1 [Compound 3052]
2,190 to 196 °C,C[C@@H](OC(=O)Nc1ccc(-c2c(C#N)c3ccc(OCS(C)(=O)=O)cc3n2C2CC2)cc1)C(F)(F)F [Compound 3054]
3,237 to 241 °C,CC(C)(C)OC(=O)Nc1ccc(-c2c(C#N)c3ccc(OCS(C)(=O)=O)cc3n2C2CCCC2)cc1 [Compound 3066]
4,265 to 271 °C,CC(C)OC(=O)Nc1ccc(-c2c(C#N)c3ccc(OCS(C)(=O)=O)cc3n2C2CCCC2)cc1 [Compound 3067]
5,218 to 224 °C,C[C@@H](OC(=O)Nc1ccc(-c2c(C#N)c3ccc(OCS(C)(=O)=O)cc3n2C2CCCC2)cc1)C1CC1 [Compound 3068]
6,237 to 242 °C,CCOc1ccc2c(C#N)c(-c3ccc(NC(=O)OC4CCN(S(=O)(=O)CC)CC4)cc3)n(C3CCC3)c2c1 [Compound 3070]
7,211 to 215 °C,CCOc1ccc2c(C#N)c(-c3ccc(NC(=O)OC4CCN(C(C)=O)CC4)cc3)n(C3CCC3)c2c1 [Compound 3072]
8,185 to 190 °C,CCOc1ccc2c(C#N)c(-c3ccc(NC(=O)OC4CCN(C(=O)OCCOC)CC4)cc3)n(C3CCC3)c2c1 [Compound 3073]
9,194 to 195 °C,CCOc1ccc2c(C#N)c(-c3ccc(NC(=O)OCCS(C)(=O)=O)cc3)n(C3CCC3)c2c1 [Compound 3079]
10,195 to 196 °C,CCOc1ccc2c(C#N)c(-c3ccc(S(=O)(=O)N4CC[C@H](O)C4)cc3)n(C3CCC3)c2c1 [Compound 3085]
11,194 to 196 °C,CCOc1ccc2c(C#N)c(-c3ccc(S(=O)(=O)N4CCC(O)C4)cc3)n(C3CCC3)c2c1 (stereo not shown) [Compound 3086]
12,172 to 177 °C,CSc1nccc(Oc2ccc3c(C#N)c(-c4ccc(NC(=O)O[C@H](C)C5CC5)cc4)n(C4CCC4)c3c2)n1 [Compound 3089]
13,196 to 201 °C,CSc1nccc(Oc2ccc3c(C#N)c(-c4ccc(NC(=O)OC(C)C)cc4)n(C4CCC4)c3c2)n1 [Compound 3090]
14,238 to 243 °C,CSc1nccc(Oc2ccc3c(C#N)c(-c4ccc(NC(=O)NC(C)C)cc4)n(C4CCC4)c3c2)n1 [Compound 3092]
15,152 to 153 °C,CC(C)NC(=O)COc1ccc(-c2c(C#N)c3ccc(OC4CCOCC4)cc3n2C2CCC2)cc1 [Compound 3109]
16,165 to 166 °C,CN(C)c1ccc(NC(=O)Oc2ccc(-c3c(C#N)c4ccc(OC5CCOCC5)cc4n3C3CCC3)cc2)cc1 [Compound 3111]
17,167 to 169 °C,CN(C(=O)Oc1ccc(-c2c(C#N)c3ccc(OC4CCOCC4)cc3n2C2CCC2)cc1)c1ccccc1 [Compound 3112]

row,melting point,Compound
1,157 to 159 °C,CC(C)c1ccc(CNc2ccc(-c3c(C#N)c4ccc(OC5CCOCC5)cc4n3C3CCC3)cc2)cc1 [Compound 3119]
2,180 to 181 °C,N#Cc1c(-c2ccc(NCc3ccccc3F)cc2)n(C2CCC2)c2cc(OC3CCOCC3)ccc12 [Compound 3120]
3,168 to 172 °C,Cc1ccccc1CNc1ccc(-c2c(C#N)c3ccc(OC4CCOCC4)cc3n2C2CCC2)cc1 [Compound 3121]
4,185 to 188 °C,CC(C)c1ccc(Nc2ccc(-c3c(C#N)c4ccc(OC5CCOCC5)cc4n3C3CCC3)cc2)cc1 [Compound 3127]
5,207 to 210 °C,COc1ccc(Nc2ccc(-c3c(C#N)c4ccc(OC5CCOCC5)cc4n3C3CCC3)cc2)cc1 [Compound 3128]
6,108 to 110 °C,N#Cc1c(-c2ccc(Nc3cccc(OC(F)(F)F)c3)cc2)n(C2CCC2)c2cc(OC3CCOCC3)ccc12 [Compound 3129]
7,149 to 152 °C,COCCOc1ccc2c(C#N)c(-c3ccc(C(=O)N[C@@H](C)c4ccccc4)cc3)n(C3CCC3)c2c1 [Compound 3131]
8,169 to 170 °C,COCCOc1ccc2c(C#N)c(-c3ccc(C(=O)N[C@H](C)c4ccc(F)cc4)cc3)n(C3CCC3)c2c1 [Compound 3132]
9,156 to 157 °C,COCCOc1ccc2c(C#N)c(-c3ccc(C(=O)N[C@H](C)c4ccc(OC)cc4)cc3)n(C3CCC3)c2c1 [Compound 3133]
10,154 to 160 °C,COCCOc1ccc2c(C#N)c(-c3ccc(C(=O)NCc4ccc(F)cc4)cc3)n(C3CCC3)c2c1 [Compound 3134]
11,250 °C (dec.),CCN(CC)C(=O)c1ccc2c(c1)c(C#N)c(-c1ccc(NC(=O)NC(C)C)cc1)n2C1CCC1 [Compound 3136]
12,225 to 226 °C,CCN(CC)C(=O)c1ccc2c(c1)c(C#N)c(-c1ccc(NC(=O)OC(C)C)cc1)n2C1CCC1 [Compound 3145]
13,136 to 138 °C,CC(C)OC(=O)Nc1ccc(-c2c(C#N)c3cc(C(=O)N(C)C)ccc3n2C2CCC2)cc1 [Compound 3146]
14,269 to 271 °C,N#Cc1c(-c2ccc(Nc3nc(-c4ccc(F)cc4)cs3)cc2)n(C2CCC2)c2cc(OC3CCOCC3)ccc12 [Compound 3153]
15,195 to 201 °C,COc1ccc(Nc2ccc(-c3c(C#N)c4ccc(OC5CCOCC5)cc4n3C3CCC3)cc2)cc1C [Compound 3159]
16,125 to 128 °C,N#Cc1c(-c2ccc(Nc3ccccc3Cl)cc2)n(C2CCC2)c2cc(OC3CCOCC3)ccc12 [Compound 3160]

# Continued, compound first:
row,Compound,melting point
1,Cc1ccnc(Oc2ccc3c(C#N)c(-c4ccc(NC(=O)O[C@H](C)C5CC5)cc4C)n(C4CCC4)c3c2)n1 [Compound 3057],95 to 112 °C
2,CCc1cnc(Oc2ccc3c(C#N)c(-c4ccc(NC(=O)O[C@H](C)C5CC5)cc4C)n(C4CCC4)c3c2)nc1 [Compound 3058],181 to 185 °C
3,Cc1ccnc(Oc2ccc3c(C#N)c(-c4ccc(NC(=O)O[C@H](C)C5CC5)cc4Cl)n(C4CCC4)c3c2)n1 [Compound 3059],97 to 109 °C
4,CCc1cnc(Oc2ccc3c(C#N)c(-c4ccc(NC(=O)O[C@H](C)C5CC5)cc4Cl)n(C4CCC4)c3c2)nc1 [Compound 3060],205 to 212 °C
5,CCOc1ccc2c(C#N)c(-c3ccc(NC(=O)OC4CCN(C(=O)OC(C)(C)C)CC4)cc3)n(C3CCC3)c2c1 [Compound 3069],207 to 211 °C
6,CCOc1ccc2c(C#N)c(-c3ccc(NC(=O)OC4CCN(S(=O)(=O)C5CC5)CC4)cc3)n(C3CCC3)c2c1 [Compound 3071],236 to 241 °C
7,CCOc1ccc2c(c1)c(C#N)c(-c1ccc(N(S(=O)(=O)CC)S(=O)(=O)CC)cc1)n2CC1CC1 [Compound 3078],180 to 182 °C
8,N#Cc1c(-c2ccc(NC(=O)Nc3n[nH]c(C4CC4)n3)cc2)n(C2CCC2)c2cc(Oc3ncccn3)ccc12 [Compound 3087],275 °C (dec.)
9,N#Cc1c(-c2ccc(NS(=O)(=O)c3ccccc3)cc2)n(C2CCC2)c2cc(OC3CCOCC3)ccc12 [Compound 3091],231 to 233 °C
10,CCOc1ccc2c([N+](=O)[O-])c(-c3ccc(NC(=O)OC(C)C)cc3)n(CC3CC3)c2c1[N+](=O)[O-] [Compound 3093],112 to 119 °C
11,CCCS(=O)(=O)Nc1ccc(-c2c(C#N)c3cc(C(=O)N(C)C)ccc3n2C2CCC2)cc1 [Compound 3094],236 to 237 °C
12,CCCS(=O)(=O)Nc1ccc(-c2c(C#N)c3cc(C(=O)N(CC)CC)ccc3n2C2CCC2)cc1 [Compound 3095],133 to 134 °C
13,CCCS(=O)(=O)Nc1ccc(-c2c(C#N)c3cc(C(=O)N(C)CC)ccc3n2C2CCC2)cc1 [Compound 3096],138 to 139 °C
14,CCCS(=O)(=O)Nc1ccc(-c2c(C#N)c3cc(C(=O)N4CCCC4)ccc3n2C2CCC2)cc1 [Compound 3097],200 to 202 °C
15,CCCS(=O)(=O)Nc1ccc(-c2c(C#N)c3cc(C(=O)N4CCOCC4)ccc3n2C2CCC2)cc1 [Compound 3098],128 to 129 °C
16,N#Cc1c(-c2ccc(N)cc2)n(C2CCC2)c2cc(Oc3nccc(N4CCOCC4)n3)ccc12 [Compound 3099],149 to 152 °C

row,Compound,melting point
1,C[C@@H](OC(=O)Nc1ccc(-c2c(C#N)c3ccc(C(=O)N4CCN(C)CC4)cc3n2C2CCC2)cc1)C1CC1 [Compound 3106],104 to 106 °C
2,C[C@@H](OC(=O)Nc1ccc(-c2c(C#N)c3ccc(C(=O)N4CCOCC4)cc3n2C2CCC2)cc1)C1CC1 [Compound 3107],156 to 158 °C
3,CC1CCN(C(=O)c2ccc3c(C#N)c(-c4ccc(NC(=O)O[C@H](C)C5CC5)cc4)n(C4CCC4)c3c2)CC1 [Compound 3108],150 to 153 °C
4,C=CCNC(=O)Oc1ccc(-c2c(C#N)c3ccc(OC4CCOCC4)cc3n2C2CCC2)cc1 [Compound 3110],167 to 168 °C
5,CN1CCN(C(=O)c2ccc3c(C#N)c(-c4ccc(NS(=O)(=O)C5CC5)cc4)n(C4CCC4)c3c2)CC1 [Compound 3114],124 to 127 °C
6,N#Cc1c(-c2ccc(NCCCc3ccccc3)cc2)n(C2CCC2)c2cc(OC3CCOCC3)ccc12 [Compound 3118],105 to 108 °C
7,Cc1cc(C)cc(CNc2ccc(-c3c(C#N)c4ccc(OC5CCOCC5)cc4n3C3CCC3)cc2)c1 [Compound 3122],104 to 107 °C
8,N#Cc1c(-c2ccc(NCC3CCCCC3)cc2)n(C2CCC2)c2cc(OC3CCOCC3)ccc12 [Compound 3123],175 to 177 °C
9,CC(C)OC(=O)Nc1ccc(-c2c(C#N)c3cc(C(=O)N4CCCC4)ccc3n2C2CCC2)cc1 [Compound 3148],204 to 205 °C
10,N#Cc1c(-c2ccc(NC3=NC(O)(C(F)(F)F)CS3)cc2)n(C2CCC2)c2cc(OC3CCOCC3)ccc12 (stereo not shown) [Compound 3150],136 to 138 °C
11,CC(C)(C)c1csc(Nc2ccc(-c3c(C#N)c4ccc(OC5CCOCC5)cc4n3C3CCC3)cc2)n1 [Compound 3151],246 to 248 °C
12,Cc1csc(Nc2ccc(-c3c(C#N)c4ccc(OC5CCOCC5)cc4n3C3CCC3)cc2)n1 [Compound 3152],215 to 217 °C
13,N#Cc1c(-c2ccc(Nc3ccc(F)c(C(F)(F)F)c3)cc2)n(C2CCC2)c2cc(OC3CCOCC3)ccc12 [Compound 3156],168 to 169 °C
14,N#Cc1c(-c2ccc(NC(=S)NC3CCCC3)cc2)n(C2CCC2)c2cc(OC3CCOCC3)ccc12 [Compound 3157],137 to 138 °C
15,CC(C)NC(=S)Nc1ccc(-c2c(C#N)c3ccc(OC4CCOCC4)cc3n2C2CCC2)cc1 [Compound 3158],129 to 130 °C
